Laboratory results reported in patent US12227895B2, “Odor reduction and bacterial control on a textile material” (Microban Products Company, priority 2019, dated 2025).
Where two headings read alike, the source gives them in different places.

What was measured:
bacteria = conditions: for efficacy (AATCC TM100): salts only, zero home launderings, liquor pH not lowered (FIG. 1); for efficacy after home launderings: after 25 home launderings (FIG. 3)
Kp = conditions: Polyester Fabric, Mathis JFO Exhaust
Method: High dye load samples are the most difficult to process using exhaustion dye techniques. A series of tests were run using PET (polyester) and polyspandex fabrics. In this test series the materials were tested in two different laboratories using container-style lab exhaust equipment. Alongside the treated samples, untreated fabrics were run for comparison.
The fabrics were tested as-made and after 25 home launderings (25 HL). Each home laundering was performed in a commercial front-load washing machine per AATCC Monograph M6 using Tide HE detergent.
Trials have been performed in a small Thiele exhaustion pilot unit, as well as in Mathis JFO pilot scale equipment, both of which use jets to forcibly impregnate the textile with the exhaust liquor.
Reductive Clears—Method A is 1% Na Hydrosulfite whereas Method B is 0.3% NaOH, 0.4% Na Hydrosulfite. “owg” is “on weight of goods”.

| Structure (SMILES) | efficacy (AATCC TM100) (bacteria) | efficacy after home launderings (bacteria) | other results |
| --- | --- | --- | --- |
| O=C([O-])c1ccccc1.[Na+] [sodium benzoate] | relatively low levels of efficacy |  | Percent reduction (Kp; 0 HL, sodium benzoate acidified with citric acid to pH<3.6, run as Example 4): 99.50%; Percent reduction (Kp; 25 HL, sodium benzoate acidified with citric acid to pH<3.6): 99.50% |
| C/C=C/C=C/C(=O)[O-].[K+] [potassium sorbate, reference compound] | relatively low levels of efficacy |  |  |
| C/C=C/C=C/C(=O)O [sorbic acid] |  | able to maintain efficacy following multiple washing cycles | efficacy after a reductive clear (bacteria; exhausted on polyester fabric, 0 HL (FIG. 4)): demonstrate efficacy after the reductive clear |
| O=C(O)CC(O)(CC(=O)O)C(=O)O [Citric acid, citric acid] |  | not able to maintain efficacy |  |
| O=C([O-])CC(O)(CC(=O)[O-])C(=O)[O-].[Na+].[Na+].[Na+] [trisodium citrate, reference compound] | relatively low levels of efficacy |  |  |
